Reference: patent US11760751B2, “Benzo 2-azaspiro[4.4]nonane compound and use thereof” (HELIOEAST PHARMACEUTICAL CO., LTD., priority 2020, dated 2023)

Experiments:
S1PR1 = biological target: T1, S1PR1 (Homo sapiens, UniProt P21453); assay: In vitro S1PR1 agonistic activity, U2OS-EDG1 cells, LiveBLAzer-FRET B/G (CCF4-AM); type: cell-based
T1 construct: expressed in transfected cells
Method: Test Embodiment 2: In Vitro Evaluation of the Agonistic Activity of the Compounds of the Present Disclosure on S1PR1
Experimental objective: to detect the agonistic activity of compounds on S1PR1
I. Cell Treatment • 1. The cells U2OS-EDG1 (batch number: Invitrogen-K1520) were taken out from a liquid nitrogen tank and quickly thawed in a 37° C. water bath; • 2. the cell suspension was aspirated into a 15 mL centrifuge tube, resuspended in 5 mL of pre-warmed culture medium, and centrifuged at 1000 rpm for 5 min; • 3. the supernatant was discarded, 10 mL of culture medium was resuspended, transferred to a T75 culture flask, and cultured in a 37° C., 5% CO2 incubator.
II. Agonist Assay • 1. Compounds were diluted to working concentrations, and the compounds were 3-fold diluted by Echo 555 (manufacturer: Labcyte) to 10 concentrations, and then 200 nL of each concentration were transferred to cell plates, and centrifuged at 1000 rpm for 15 seconds; • 2. the culture medium in the culture flask was aspirated, and 4 mL of Dulbecco's Phosphate Buffered Saline (DPBS, supplier: Coring, catalog number: 21-031-CVR, batch number: 03318006) was added thereto to wash off the residual serum, and 2 mL of trypsin was added thereto, and incubated in a 37° C. incubator for 2 minutes to digest the cells, and then 10 mL of seed plate culture medium was added to resuspend the cells, and 0.6 mL of the cell suspension was taken out for counting; • 3. the cell density was adjusted with the seed plate culture medium to 1.88E+05 cells/mL, 40 μL was seeded per well (7500\well), and 40 μL of FreeStyle™ Expression culture medium was added around the cell plate, left to stand for 15 minutes at room temperature, and incubated at 37° C. with 5% CO2 for 20 hours.
III. Signal Detection • 1. LiveBLAzer™-FRET B/G Substrate (CCF4-AM) detection reagent was configured according to the instructions; • 2. 8 μL of 6×Substrate Mixture was added to each well of the cell plate, centrifuged at 1000 rpm for 15 seconds, attached with a membrane, incubated at 23° C. for 2 hours, and detected by Envision […].
IV. Data Analysis • 1. The original data was converted into % Effect by using the equation, and the value of EC50 could be obtained by curve fitting with four parameters [obtained in the “log(agonist) vs. response—Variable slope” mode in GraphPad Prism]; • 2. calculation formula: Ratio=(460 nm−blank)/(535 nm−blank) % Effect=(SampleRatio−Ave LCRatio)/(Ave HCRatio−Ave LCRatio)*100%

[1] = Pharmacokinetic evaluation in SD rats at different oral doses; type: in vivo, Sprague Dawley rats; details: SD rat, single oral administration 5 mg/kg, 5 mg/kg
Method: Test Embodiment 5: Pharmacokinetic Evaluation of Compounds in Rats at Different Doses
Experimental objective: to test the pharmacokinetics of the compounds in SD rats at different doses
Sprague Dawley rats (male, 200-300 g, 7-9 weeks old, Shanghai SLAC)
A standard protocol was used to test the pharmacokinetic characteristics of the compounds in SD rats after oral administration. In the experiment, the candidate compound was prepared into a clear solution, and administrated to rats by single oral administration. The vehicle for compound 1 was DMSO: 10% hydroxypropyl β-cyclodextrin aqueous solution=5:95. The vehicle for compounds 1A and 1B was 0.5% carboxymethyl cellulose +0.2% Tween 80. Whole blood samples of compounds 1, 1A and 1B within 48 hours were collected, centrifuged at 3000 g for 15 minutes, and the supernatant was separated to obtain plasma samples. 4-fold volume of acetonitrile solution containing internal standard was added thereto to precipitate protein. The mixture was centrifuged, and the supernatant was taken, and an equal volume of water was added thereto. Then the mixture was centrifuged and the supernatant was taken for injection. The blood drug concentration was quantitatively analyzed by LC-MS/MS analysis method, and pharmacokinetic parameters, such as peak concentration, peak time, half-life, area under the drug-time curve, were calculated.

T1 sequence (P21453 whole entry): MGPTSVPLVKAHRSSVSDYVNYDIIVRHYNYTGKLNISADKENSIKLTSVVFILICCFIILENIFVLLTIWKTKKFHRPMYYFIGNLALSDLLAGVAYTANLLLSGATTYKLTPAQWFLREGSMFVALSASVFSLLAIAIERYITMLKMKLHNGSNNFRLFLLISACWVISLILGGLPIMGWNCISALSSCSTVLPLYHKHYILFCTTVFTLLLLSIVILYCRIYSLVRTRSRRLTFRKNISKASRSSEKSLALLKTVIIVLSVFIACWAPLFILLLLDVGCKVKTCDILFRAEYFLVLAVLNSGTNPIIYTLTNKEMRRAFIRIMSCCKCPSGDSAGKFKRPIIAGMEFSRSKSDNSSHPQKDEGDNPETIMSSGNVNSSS

- EC50 (S1PR1; 20 hours incubation): 0.15 nM
- Emax (S1PR1; % Effect, read-out: Emax): 84.2%
- Area under the drug-time curve AUC0-last PO [1]: 26.434 µM·h
- Half-life T1/2 (PO) [1]: 5.69 h
- Peak time Tmax [1]: 2 h
- Cmax ([1]; read-out: Peak concentration Cmax): 2500 nM
Structure (SMILES): CC(C)Oc1ccc(-c2nc(-c3cccc4c3CCC43CCN(CC4(C(=O)O)CC4)C3)no2)cc1C#N (single isomer, unassigned) [Compound 22A]
